Experimental findings from ChEMBL document CHEMBL1141561, “A new series of neutral 5-substituted 4-anilinoquinazolines as potent, orally active inhibitors of erbB2 receptor tyrosine kinase” (Bioorg Med Chem Lett, 2008) are described below.

≈ marks a conversion by molar mass, not a printed value.

Data set [1] concerns the target Voltage-gated inwardly rectifying potassium channel KCNH2 (Homo sapiens, UniProt Q12809).
The nature of data set [2]: Dissociation constant, pKa of the compound. The format is physicochemical.
In data set [3] the target is T1, Receptor tyrosine-protein kinase erbB-2 (Homo sapiens, UniProt P04626). Put plainly: Inhibition of ebrB2 expressed in human MCF7 cells by autophosphorylation assay. It is filed as cell-based.
T1 sequence (P04626 whole entry): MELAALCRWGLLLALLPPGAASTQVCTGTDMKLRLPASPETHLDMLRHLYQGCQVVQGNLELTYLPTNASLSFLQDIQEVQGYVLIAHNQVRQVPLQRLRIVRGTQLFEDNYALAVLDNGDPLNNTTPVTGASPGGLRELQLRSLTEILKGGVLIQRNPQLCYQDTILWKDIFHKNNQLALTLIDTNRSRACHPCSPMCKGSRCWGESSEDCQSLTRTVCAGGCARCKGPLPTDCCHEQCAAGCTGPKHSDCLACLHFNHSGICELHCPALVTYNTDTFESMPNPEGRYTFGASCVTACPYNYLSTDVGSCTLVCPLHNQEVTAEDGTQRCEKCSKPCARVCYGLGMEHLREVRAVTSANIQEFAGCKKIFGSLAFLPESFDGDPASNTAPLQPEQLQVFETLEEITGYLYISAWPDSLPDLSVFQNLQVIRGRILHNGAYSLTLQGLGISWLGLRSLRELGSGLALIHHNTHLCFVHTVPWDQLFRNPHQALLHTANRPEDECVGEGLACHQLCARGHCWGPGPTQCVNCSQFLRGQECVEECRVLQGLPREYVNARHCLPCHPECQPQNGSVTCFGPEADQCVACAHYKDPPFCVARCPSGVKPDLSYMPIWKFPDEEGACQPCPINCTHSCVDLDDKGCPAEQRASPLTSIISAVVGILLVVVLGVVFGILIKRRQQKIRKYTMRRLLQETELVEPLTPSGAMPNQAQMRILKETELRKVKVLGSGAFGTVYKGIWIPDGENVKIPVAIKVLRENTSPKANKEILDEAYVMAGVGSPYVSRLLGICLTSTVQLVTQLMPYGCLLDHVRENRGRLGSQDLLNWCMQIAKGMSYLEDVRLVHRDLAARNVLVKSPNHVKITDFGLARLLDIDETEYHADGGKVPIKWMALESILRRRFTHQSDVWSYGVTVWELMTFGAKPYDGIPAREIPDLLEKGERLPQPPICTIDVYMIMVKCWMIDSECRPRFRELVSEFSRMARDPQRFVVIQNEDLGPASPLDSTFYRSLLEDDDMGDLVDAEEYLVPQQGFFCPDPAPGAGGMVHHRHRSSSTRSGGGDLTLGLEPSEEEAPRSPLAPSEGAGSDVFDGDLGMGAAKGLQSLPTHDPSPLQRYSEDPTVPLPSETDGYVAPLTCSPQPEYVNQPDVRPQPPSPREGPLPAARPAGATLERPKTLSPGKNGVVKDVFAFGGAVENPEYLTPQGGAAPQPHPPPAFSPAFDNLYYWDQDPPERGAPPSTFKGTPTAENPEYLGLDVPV
The nature of data set [4]: Volume of distribution at steady state in Han Wistar rat at 2 mg/kg, iv and 5 mg/kg, po. The format is ADME, organism-based. The settings on record: in vivo, read-out: Vdss.
Data set [5] can be described thus: Fraction unbound ligand in Beagle dog at 0.2 mg/kg, iv and 0.4 mg/kg, po. The settings on record: in vivo. The format is ADME, organism-based, Canis lupus familiaris.
The target of data set [6] is Epidermal growth factor receptor (Homo sapiens, UniProt P00533).
Epidermal growth factor receptor, sequence (P00533 whole entry): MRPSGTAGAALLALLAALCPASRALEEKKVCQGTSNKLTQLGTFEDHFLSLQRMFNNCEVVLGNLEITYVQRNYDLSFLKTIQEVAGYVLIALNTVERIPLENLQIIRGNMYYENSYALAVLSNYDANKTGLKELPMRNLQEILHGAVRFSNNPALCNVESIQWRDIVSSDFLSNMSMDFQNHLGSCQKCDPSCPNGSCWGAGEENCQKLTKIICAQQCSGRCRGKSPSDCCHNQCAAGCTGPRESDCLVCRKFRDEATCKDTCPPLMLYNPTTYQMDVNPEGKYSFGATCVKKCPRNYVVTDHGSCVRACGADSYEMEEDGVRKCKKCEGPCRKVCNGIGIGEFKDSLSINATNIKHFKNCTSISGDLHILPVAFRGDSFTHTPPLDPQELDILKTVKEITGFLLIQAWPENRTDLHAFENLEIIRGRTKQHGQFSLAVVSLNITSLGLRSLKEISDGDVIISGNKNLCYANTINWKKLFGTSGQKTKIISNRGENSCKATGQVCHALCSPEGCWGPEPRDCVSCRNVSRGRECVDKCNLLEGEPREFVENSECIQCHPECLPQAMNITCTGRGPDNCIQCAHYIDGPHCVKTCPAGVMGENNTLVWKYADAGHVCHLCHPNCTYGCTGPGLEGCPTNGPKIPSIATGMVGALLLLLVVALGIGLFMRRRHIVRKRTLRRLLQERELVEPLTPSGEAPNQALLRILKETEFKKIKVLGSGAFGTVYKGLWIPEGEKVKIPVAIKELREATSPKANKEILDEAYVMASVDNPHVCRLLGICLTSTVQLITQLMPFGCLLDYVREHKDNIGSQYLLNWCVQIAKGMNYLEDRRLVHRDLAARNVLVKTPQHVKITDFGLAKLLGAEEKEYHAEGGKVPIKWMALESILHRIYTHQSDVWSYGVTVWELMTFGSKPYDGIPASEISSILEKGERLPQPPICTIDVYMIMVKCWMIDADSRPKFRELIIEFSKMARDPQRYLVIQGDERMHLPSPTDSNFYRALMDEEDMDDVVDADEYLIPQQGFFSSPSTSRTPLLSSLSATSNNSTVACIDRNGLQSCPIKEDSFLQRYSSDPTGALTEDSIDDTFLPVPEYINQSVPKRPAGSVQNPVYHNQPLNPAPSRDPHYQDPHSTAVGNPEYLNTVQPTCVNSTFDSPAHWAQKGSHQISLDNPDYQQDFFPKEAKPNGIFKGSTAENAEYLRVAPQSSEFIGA
For data set [7], the system named is KB. Put plainly: cells. The settings on record: Homo sapiens.
Data set [8] can be described thus: Solubility in aqueous phosphate buffer at pH 7.4 after 24 hrs. It is filed as physicochemical.
Data set [9] in a line: Volume of distribution at steady state in Beagle dog at 1 mg/kg, iv and 2 mg/kg, po. The settings on record: in vivo, read-out: Vdss. The format is ADME, organism-based, Canis lupus familiaris.
Data set [10] in a line: Fraction unbound ligand in Han Wistar rat plasma protein. The format is ADME, cell-free.
Data set [11] relates to Rattus norvegicus. Put plainly: Clearance in Han Wistar rat assessed as hepatic blood flow at 2 mg/kg, iv and 5 mg/kg, po. It is filed as ADME, organism-based, Liver. The settings on record: in vivo.
A short description of data set [12]: Fraction unbound ligand in mouse plasma protein. It is filed as ADME, cell-free.
For data set [13], the species on record is Mus musculus. The experiment in a line: animal or person. The settings on record: BT474c, po, 8 h, read-out: Inhibition.
In data set [14] the test system is Canis familiaris. The experiment in a line: Clearance in Beagle dog assessed as hepatic blood flow at 1 mg/kg, iv and 2 mg/kg, po. It is filed as ADME, organism-based, Canis lupus familiaris, Liver. The settings on record: in vivo.
The nature of data set [15]: Partition coefficient, log D at pH 7.4. The format is physicochemical. The settings on record: octanol/water.
For data set [16], the species on record is Mus musculus. The experiment in a line: animal or person. The settings on record: BT474c, po, 1 h, read-out: Inhibition.
Data set [17] in a line: Bioavailability in Han Wistar rat at 2 mg/kg, iv and 5 mg/kg, po. The format is ADME, organism-based. The settings on record: in vivo.
A short description of data set [18]: Bioavailability in Beagle dog at 1 mg/kg, iv and 2 mg/kg, po. The settings on record: in vivo. It is filed as ADME, organism-based, Canis lupus familiaris.
In data set [19] the target is T1, Receptor tyrosine-protein kinase erbB-2. The experiment in a line: Inhibition of ebrB2.
Data set [20] can be described thus: cells. The settings on record: Homo sapiens, BT474c.
The species named for data set [21] is Mus musculus. Put plainly: animal or person. The settings on record: BT474c, po, 1 h, read-out: Inhibition. This is another data set of the same source.
Data set [22] in a line: Bioavailability in Beagle dog at 0.2 mg/kg, iv and 0.4 mg/kg, po. The format is ADME, organism-based, Canis lupus familiaris. The settings on record: in vivo.
Data set [23] in a line: Volume of distribution at steady state in Beagle dog at 0.2 mg/kg, iv and 0.4 mg/kg, po. It is filed as ADME, organism-based, Canis lupus familiaris. The settings on record: in vivo, read-out: Vdss.
The subject of data set [24] is Canis familiaris. Put plainly: Clearance in Beagle dog assessed as hepatic blood flow at 0.2 mg/kg, iv and 0.4 mg/kg, po. The settings on record: in vivo. It is filed as ADME, organism-based, Canis lupus familiaris, Liver.
The species named for data set [25] is Mus musculus. Put plainly: animal or person. The settings on record: BT474c, po, 8 h, read-out: Inhibition. This is another data set of the same source.
Data set [26] deals with Rattus norvegicus. The experiment in a line: Clearance in Han Wistar rat assessed as hepatic blood flow at 0.4 mg/kg, iv and 1 mg/kg, po. It is filed as ADME, organism-based, Liver. The settings on record: in vivo.
Data set [27] in a line: Bioavailability in Han Wistar rat at 0.4 mg/kg, iv and 1 mg/kg, po. The format is ADME, organism-based. The settings on record: in vivo.
Data set [28] in a line: Volume of distribution at steady state in Han Wistar rat at 0.4 mg/kg, iv and 1 mg/kg, po. The format is ADME, organism-based. The settings on record: in vivo, read-out: Vdss.

Voltage-gated inwardly rectifying potassium channel KCNH2, sequence (Q12809 whole entry): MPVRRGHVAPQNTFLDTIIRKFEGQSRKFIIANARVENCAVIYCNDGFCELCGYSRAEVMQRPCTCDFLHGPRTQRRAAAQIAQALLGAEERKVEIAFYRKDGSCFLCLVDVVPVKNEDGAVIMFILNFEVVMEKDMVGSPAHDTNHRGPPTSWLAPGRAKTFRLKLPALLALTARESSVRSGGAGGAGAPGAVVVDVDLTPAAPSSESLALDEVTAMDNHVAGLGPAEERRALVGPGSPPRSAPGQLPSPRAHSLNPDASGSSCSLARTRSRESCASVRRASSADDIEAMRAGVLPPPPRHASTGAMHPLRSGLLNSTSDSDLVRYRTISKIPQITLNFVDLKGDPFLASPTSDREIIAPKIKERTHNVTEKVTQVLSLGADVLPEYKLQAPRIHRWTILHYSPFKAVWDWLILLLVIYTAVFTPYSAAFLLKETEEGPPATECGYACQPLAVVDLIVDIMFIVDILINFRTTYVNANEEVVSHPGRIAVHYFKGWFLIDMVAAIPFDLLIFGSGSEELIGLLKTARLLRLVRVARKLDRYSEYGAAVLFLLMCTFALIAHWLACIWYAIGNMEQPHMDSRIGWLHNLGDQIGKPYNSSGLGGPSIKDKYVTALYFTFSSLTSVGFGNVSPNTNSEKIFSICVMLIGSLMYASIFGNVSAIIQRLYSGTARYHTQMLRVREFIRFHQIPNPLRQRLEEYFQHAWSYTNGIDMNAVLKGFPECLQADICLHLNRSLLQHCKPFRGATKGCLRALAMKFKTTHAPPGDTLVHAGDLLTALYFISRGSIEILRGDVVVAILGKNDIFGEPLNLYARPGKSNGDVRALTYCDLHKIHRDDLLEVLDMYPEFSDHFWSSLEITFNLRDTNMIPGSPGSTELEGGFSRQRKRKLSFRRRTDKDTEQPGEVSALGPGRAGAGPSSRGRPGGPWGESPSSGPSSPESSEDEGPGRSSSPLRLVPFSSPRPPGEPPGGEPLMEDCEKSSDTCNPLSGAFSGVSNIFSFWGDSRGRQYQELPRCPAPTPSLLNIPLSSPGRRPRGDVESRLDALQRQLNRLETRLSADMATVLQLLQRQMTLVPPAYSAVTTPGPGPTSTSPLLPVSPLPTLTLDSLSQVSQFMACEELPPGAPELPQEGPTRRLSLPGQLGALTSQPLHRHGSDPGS

`CN1CCC(Oc2cccc3ncnc(Nc4ccc(OCc5ccccn5)c(Cl)c4)c23)CC1` showed an IC50 in [1] of 5000 nM. The same compound came in with a pKa in [2] of 8.1.
`Cc1ccc(Oc2ccc(Nc3ncnc4cccc(OCC(=O)N(C)CCO)c34)cc2C)cn1`: the IC50 in data set [3] amounted to 130 nM.
`C[C@H](Oc1cccc2ncnc(Nc3ccc(OCc4ccccn4)c(Cl)c3)c12)C(=O)N(C)C`: the IC50 in data set [1] worked out at 10000 nM; in [3] it was 43 nM.
In [3], `C[C@H](Oc1cccc2ncnc(Nc3ccc(OCc4ccccn4)c(Cl)c3)c12)C(=O)N(C)CCO` yielded an IC50 of 79 nM.
In the case of `Cc1ccc(Oc2ccc(Nc3ncnc4cccc(O[C@H](C)C(=O)N(C)C)c34)cc2C)cn1`, the Vd in data set [4] stood at 0.9 L/kg; in data set [9], 1.8 L/kg. Moreover, the fraction unbound in data set [5] came out at 0.025; in [10] it was 0.017; in [12], 0.011. Moreover, the IC50 in [6] amounted to 1100 nM; in data set [1] it was 8000 nM; in data set [7], 2700 nM. The amount in solution in data set [8] (solubility at 24 h) came to 28 µM (≈ 12.8 µg/mL). Further, the “%hepatic blood flow” value turned out to be 12% in data set [11] and 48% in data set [14]. The inhibition in vivo at 100 mg/kg in data set [13] stood at 55%; in data set [16], 37%. Also, in [15], the logD was above 4.3. Moreover, the bioavailability came out at 67% in data set [17] and 47% in data set [18].
`COCCN(C)C(=O)[C@@H](C)Oc1cccc2ncnc(Nc3ccc(Oc4ccc(C)nc4)c(C)c3)c12`: the IC50 in data set [3] amounted to 120 nM.
As to `Cc1ccc(Oc2ccc(Nc3ncnc4cccc(O[C@H](C)C(=O)N(C)CCO)c34)cc2C)cn1`, the IC50 in data set [19] was found to be 2 nM; in [6], 2000 nM; in data set [20], 270 nM; in data set [7], 23000 nM; in data set [3], 69 nM. In addition, the Vd in data set [4] stood at 1 L/kg; in data set [23] it was 0.9 L/kg. The fraction unbound in data set [5] was found to be 0.038; in [10], 0.029; in data set [12], 0.025. Besides, the inhibition in vivo at 100 mg/kg in data set [21] is 78%; in data set [25] it was 36%. The compound further registered a solubility at 24 h in [8] of 66 µM (≈ 32.2 µg/mL). Moreover, the bioavailability in data set [22] is 33%; in data set [17], 34%. The “%hepatic blood flow” value in data set [11] is on record as 23%; in [24] it was 34%. The same compound came in with a logD in [15] of 3.8.
`C[C@@H](Oc1cccc2ncnc(Nc3ccc(OCc4ccccn4)c(Cl)c3)c12)C(=O)N(C)CCO` showed an IC50 in [3] of 31 nM.
In data set [3], `CN1CCN(C(=O)COc2cccc3ncnc(Nc4ccc(OCc5ccccn5)c(Cl)c4)c23)CC1` gave an IC50 of 350 nM.
Take `CN(CCO)C(=O)COc1cccc2ncnc(Nc3ccc(OCc4ccccn4)c(Cl)c3)c12`: the midpoint of inhibition in data set [3], the IC50, lay at 120 nM.
Compound `O=C(COc1cccc2ncnc(Nc3ccc(OCc4ccccn4)c(Cl)c3)c12)N1CCOCC1` came in with an IC50 in [3] of 140 nM.
Same read-out and setting: for `Cc1ccc(Oc2ccc(Nc3ncnc4cccc(O[C@H](C)C(=O)NCCO)c34)cc2C)cn1` the value was 200 nM; for `NC(=O)COc1cccc2ncnc(Nc3ccc(OCc4ccccn4)c(Cl)c3)c12`, 180 nM.
`Cc1ccc(Oc2ccc(Nc3ncnc4cccc(O[C@H](C)C(=O)N5CCOCC5)c34)cc2C)cn1`: half-maximal inhibition in data set [3] (IC50) was put at 22 nM.
On the same count and under the same terms, for `Cc1ccc(Oc2ccc(Nc3ncnc4cccc(O[C@H](C)C(=O)N5CCOCC5)c34)cc2Cl)cn1` the value was 27 nM.
With `CNC(=O)[C@@H](C)Oc1cccc2ncnc(Nc3ccc(OCc4ccccn4)c(Cl)c3)c12`, the results for the IC50 in [1] and in [3] were 32000 nM and 66 nM, respectively.
Regarding `C[C@@H](Oc1cccc2ncnc(Nc3ccc(OCc4ccccn4)c(Cl)c3)c12)C(=O)N1CCOCC1`, the IC50 in data set [1] amounted to 10000 nM; in data set [3] it was 19 nM.
As for `COc1cc(Nc2ncnc3cccc(O[C@H](C)C(=O)N4CCOCC4)c23)ccc1Oc1ccc(C)nc1`, in data set [3], the IC50 amounted to 23 nM.
For the compound `C[C@@H](Oc1cccc2ncnc(Nc3ccc(OCc4ccccn4)c(Cl)c3)c12)C(=O)N(C)C`, the IC50 was below 1 nM in data set [19]; 22 nM in [6]; 100 nM in [20]; 14000 nM in data set [1]; 1000 nM in data set [7]; 34 nM in data set [3]. The fraction unbound turned out to be 0.011 in data set [5] and 0.004 in data set [10]. In addition, the “%hepatic blood flow” value in data set [26] came to 4.3%; in data set [24], 24%. In data set [8], this compound came in with a solubility at 24 h of 6 µM (≈ 2.87 µg/mL). Further, the bioavailability in data set [22] came out at 89%; in [27], 75%. Also, the Vd in data set [23] was determined as 1 L/kg; in data set [28] it was 0.5 L/kg. Further, in data set [15], the logD came to 3.7.
Turning to `Cc1ccc(Oc2ccc(Nc3ncnc4cccc(O[C@@H](C)C(=O)N(C)C)c34)cc2C)cn1`, in [1], half-maximal inhibition (IC50) was put at 11000 nM.
In data set [3], `Cc1ccc(Oc2ccc(Nc3ncnc4cccc(O[C@@H](C)C(=O)N5CCOCC5)c34)cc2C)cn1` registered an IC50 of 35 nM.
Same read-out and setting: for `Cc1ccc(Oc2ccc(Nc3ncnc4cccc(O[C@@H](C)C(=O)N(C)CCO)c34)cc2C)cn1` the value was 78 nM.

Usually IC50 stands for the point on the concentration scale where inhibition reaches its midpoint. A higher IC50 goes with lower potency. One may read the pKa as the pH at which an ionisable group is half protonated. Read a low pKa as a stronger acid or weaker base. The fraction unbound is free concentration divided by total concentration. Usually solubility stands for how much of the substance goes into solution per volume. Higher therefore signals a readily soluble substance. As a reminder, the logD is the decadic logarithm of the distribution of all forms, ionised or not, between an organic phase and buffer at a given pH. By bioavailability is commonly meant dose-corrected exposure relative to a reference, in per cent.
